Assay results: the NIST ThermoML archive (doi:10.1021/je020215j)

Conditions: Crystal

Nc1c[nH]c(=O)[nH]c1=O [2,4(1H,3H)-pyrimidinedione, 5-amino-]
Conditions | vapor or sublimation pressure [kPa]
433.11 K | 1.941e-05
433.16 K | 2.072e-05
436.7 K | 2.56e-05
438.65 K | 3.333e-05
440.48 K | 3.89e-05
442.32 K | 4.794e-05
444.14 K | 5.231e-05
445.07 K | 5.373e-05
445.96 K | 6.018e-05
445.97 K | 5.707e-05
447.76 K | 6.664e-05
453.1 K | 9.97e-05

O=[N+]([O-])c1cnc(O)nc1O [2,4-pyrimidinedione, 5-nitro-]
Conditions | vapor or sublimation pressure [kPa]
431.25 K | 7.18e-06
433.14 K | 8.41e-06
434.95 K | 9.75e-06
434.98 K | 1.014e-05
436.81 K | 1.154e-05
438.63 K | 1.3e-05
440.46 K | 1.62e-05
442.17 K | 2.096e-05
442.27 K | 1.978e-05
445.93 K | 2.924e-05
447.76 K | 3.338e-05
453.11 K | 6.104e-05

Cn1c(N)cc(=O)n(C)c1=O [6-amino-1,3-dimethyluracil]
Conditions | vapor or sublimation pressure [kPa]
401.59 K | 9.9e-06
407.21 K | 1.673e-05
409 K | 1.845e-05
409.99 K | 2.309e-05
410.8 K | 2.478e-05
412.67 K | 2.874e-05
412.82 K | 3.133e-05
415.86 K | 4.477e-05
416.43 K | 3.968e-05
418.41 K | 5.345e-05
420.22 K | 6.082e-05
425.66 K | 0.0001053

Cn1c(N)cc(=O)[nH]c1=O [6-amino-1-methyluracil]
Conditions | vapor or sublimation pressure [kPa]
456.84 K | 2.824e-05
458.65 K | 3.188e-05
459.55 K | 3.807e-05
462.22 K | 4.621e-05
463.15 K | 5.015e-05
464.07 K | 5.429e-05
466.07 K | 6.44e-05
466.1 K | 6.38e-05
467.87 K | 7.507e-05
468.75 K | 7.967e-05
469.67 K | 8.597e-05
470.56 K | 9.083e-05

Nc1cc(O)nc(O)n1 [6-aminouracil]
Conditions | vapor or sublimation pressure [kPa]
478.6 K | 1.394e-05
478.61 K | 1.375e-05
480.4 K | 1.661e-05
482.16 K | 1.922e-05
483.92 K | 2.132e-05
485.6 K | 2.413e-05
485.7 K | 2.415e-05
487.5 K | 2.821e-05
489.24 K | 3.158e-05
491 K | 3.515e-05
491.02 K | 3.534e-05
492.65 K | 4.176e-05
